# Measurements: the supplement of paper PMC10733146
# Experiments:
# Experiment in all cases: viability relative to DMSO control (fraction); higher = less drug effect (more viable cells)
# Settings in all cases: 48 h
# [1] = system: primary ALL patient cells (S048)
# Summary of the method: (§1)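 Using 384-well plates with compounds already plated at five concentrations, one well per concentration, 4 × 10^4 primary mononuclear tumour cells were added per well. Cells were Ficoll-isolated from blood or bone marrow or came from processed lymph node, fresh or cryopreserved. They were kept for 48 h at 37 °C and 5% CO2 in RPMI-1640 supplemented with penicillin/streptomycin, L-glutamine and human serum, and viability was read as CellTiter-Glo luminescence relative to the median of 16 inner DMSO wells.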
# [2] = system: primary ALL patient cells (S088)
# Summary of the method: as §1
# [3] = system: primary AML patient cells (S006)
# Summary of the method: as §1
# [4] = system: primary AML patient cells (S055)
# Summary of the method: as §1
# [5] = system: primary AML patient cells (S056)
# Summary of the method: as §1
# [6] = system: primary AML patient cells (S060)
# Summary of the method: as §1
# [7] = system: primary AML patient cells (S071)
# Summary of the method: as §1
# [8] = system: primary AML patient cells (S072)
# Summary of the method: as §1
# [9] = system: primary AML patient cells (S079)
# Summary of the method: as §1
# [10] = system: primary AML patient cells (S089)
# Summary of the method: as §1
# [11] = system: primary CLL patient cells (S031)
# Summary of the method: as §1
# [12] = system: primary CLL patient cells (S043)
# Summary of the method: as §1
# [13] = system: primary DLBCL patient cells (S082)
# Summary of the method: as §1
# [14] = system: primary MCL patient cells (S063)
# Summary of the method: as §1
compound,measurement,setting,value
CNC(=O)c1cc(Oc2ccc(NC(=O)Nc3ccc(Cl)c(C(F)(F)F)c3)cc2)ccn1 [Sorafenib],viability,[1]; 0.024 µM,0.874
same,viability,[1]; 0.12 µM,1
same,viability,[1]; 0.6 µM,0.889
same,viability,[1]; 3 µM,0.894
same,viability,[1]; 15 µM,1.03
same,viability,[2]; 0.024 µM,0.811
same,viability,[2]; 0.12 µM,0.896
same,viability,[2]; 0.6 µM,0.844
same,viability,[2]; 3 µM,0.996
same,viability,[2]; 15 µM,1.31
same,viability,[3]; 0.024 µM,0.709
same,viability,[3]; 0.12 µM,0.508
same,viability,[3]; 0.6 µM,0.413
same,viability,[3]; 3 µM,0.423
same,viability,[3]; 15 µM,0.378
same,viability,[4]; 0.024 µM,0.971
same,viability,[4]; 0.12 µM,1.04
same,viability,[4]; 0.6 µM,1.02
same,viability,[4]; 3 µM,1.08
same,viability,[4]; 15 µM,1.04
same,viability,[5]; 0.024 µM,0.642
same,viability,[5]; 0.12 µM,0.488
same,viability,[5]; 0.6 µM,0.443
same,viability,[5]; 3 µM,0.453
same,viability,[5]; 15 µM,0.374
same,viability,[6]; 0.024 µM,0.963
same,viability,[6]; 0.12 µM,0.951
same,viability,[6]; 0.6 µM,1.02
same,viability,[6]; 3 µM,1.02
same,viability,[6]; 15 µM,1.09
same,viability,[7]; 0.024 µM,0.944
same,viability,[7]; 0.12 µM,1.01
same,viability,[7]; 0.6 µM,1.02
same,viability,[7]; 3 µM,1
same,viability,[7]; 15 µM,0.614
same,viability,[8]; 0.024 µM,1.02
same,viability,[8]; 0.12 µM,1.04
same,viability,[8]; 0.6 µM,0.99
same,viability,[8]; 3 µM,1.04
same,viability,[8]; 15 µM,1.01
same,viability,[9]; 0.024 µM,0.99
same,viability,[9]; 0.12 µM,1.02
same,viability,[9]; 0.6 µM,1.04
same,viability,[9]; 3 µM,1.1
same,viability,[9]; 15 µM,0.791
same,viability,[10]; 0.024 µM,0.847
same,viability,[10]; 0.12 µM,0.645
same,viability,[10]; 0.6 µM,0.822
same,viability,[10]; 3 µM,0.973
same,viability,[10]; 15 µM,0.587
same,viability,[11]; 0.024 µM,1.01
same,viability,[11]; 0.12 µM,1.02
same,viability,[11]; 0.6 µM,1.13
same,viability,[11]; 3 µM,1.02
same,viability,[11]; 15 µM,1.04
same,viability,[12]; 0.024 µM,0.938
same,viability,[12]; 0.12 µM,1.05
same,viability,[12]; 0.6 µM,0.94
same,viability,[12]; 3 µM,1.08
same,viability,[12]; 15 µM,0.858
same,viability,[13]; 0.024 µM,1
same,viability,[13]; 0.12 µM,1.02
same,viability,[13]; 0.6 µM,1.03
same,viability,[13]; 3 µM,1.18
same,viability,[13]; 15 µM,1.35
same,viability,[14]; 0.024 µM,0.98
same,viability,[14]; 0.12 µM,1.02
same,viability,[14]; 0.6 µM,0.973
same,viability,[14]; 3 µM,1.06
same,viability,[14]; 15 µM,1.02
Nc1nc(=S)c2[nH]cnc2[nH]1 [Thioguanin],viability,[1]; 0.024 µM,0.949
same,viability,[1]; 0.12 µM,0.906
same,viability,[1]; 0.6 µM,0.664
same,viability,[1]; 3 µM,0.37
same,viability,[1]; 15 µM,0.17
same,viability,[2]; 0.024 µM,1.03
same,viability,[2]; 0.12 µM,1.08
same,viability,[2]; 0.6 µM,0.904
same,viability,[2]; 3 µM,0.565
same,viability,[2]; 15 µM,0.281
same,viability,[3]; 0.024 µM,1.07
same,viability,[3]; 0.12 µM,0.996
same,viability,[3]; 0.6 µM,0.57
same,viability,[3]; 3 µM,0.202
same,viability,[3]; 15 µM,0.0984
same,viability,[4]; 0.024 µM,0.964
same,viability,[4]; 0.12 µM,0.867
same,viability,[4]; 0.6 µM,0.49
same,viability,[4]; 3 µM,0.19
same,viability,[4]; 15 µM,0.114
same,viability,[5]; 0.024 µM,0.912
same,viability,[5]; 0.12 µM,0.897
same,viability,[5]; 0.6 µM,0.889
same,viability,[5]; 3 µM,0.339
same,viability,[5]; 15 µM,0.127
same,viability,[6]; 0.024 µM,1.03
same,viability,[6]; 0.12 µM,0.969
same,viability,[6]; 0.6 µM,0.697
same,viability,[6]; 3 µM,0.643
same,viability,[6]; 15 µM,0.424
same,viability,[7]; 0.024 µM,1.02
same,viability,[7]; 0.12 µM,0.879
same,viability,[7]; 0.6 µM,0.577
same,viability,[7]; 3 µM,0.403
same,viability,[7]; 15 µM,0.228
same,viability,[8]; 0.024 µM,1.02
same,viability,[8]; 0.12 µM,1.01
same,viability,[8]; 0.6 µM,0.768
same,viability,[8]; 3 µM,0.538
same,viability,[8]; 15 µM,0.387
same,viability,[9]; 0.024 µM,1.02
same,viability,[9]; 0.12 µM,0.821
same,viability,[9]; 0.6 µM,0.575
same,viability,[9]; 3 µM,0.453
same,viability,[9]; 15 µM,0.254
same,viability,[10]; 0.024 µM,0.765
same,viability,[10]; 0.12 µM,0.607
same,viability,[10]; 0.6 µM,0.648
same,viability,[10]; 3 µM,0.313
same,viability,[10]; 15 µM,0.0421
same,viability,[11]; 0.024 µM,1.07
same,viability,[11]; 0.12 µM,0.972
same,viability,[11]; 0.6 µM,0.801
same,viability,[11]; 3 µM,0.613
same,viability,[11]; 15 µM,0.327
same,viability,[12]; 0.024 µM,0.884
same,viability,[12]; 0.12 µM,0.798
same,viability,[12]; 0.6 µM,0.685
same,viability,[12]; 3 µM,0.546
same,viability,[12]; 15 µM,0.338
same,viability,[13]; 0.024 µM,1.01
same,viability,[13]; 0.12 µM,0.972
same,viability,[13]; 0.6 µM,0.844
same,viability,[13]; 3 µM,0.602
same,viability,[13]; 15 µM,0.457
same,viability,[14]; 0.024 µM,1.03
same,viability,[14]; 0.12 µM,0.867
same,viability,[14]; 0.6 µM,0.495
same,viability,[14]; 3 µM,0.192
same,viability,[14]; 15 µM,0.064
